One block for each compound: values may come before it.
Tested on: 817829-284-R-J1-PDC complex spheroids, viability
Assay: Anticancer human tumor 817829-284-R-J1-PDC patient-derived colon adenocarcinoma cell line growth inhibition [CLK]
Settings: for IC50: curve of first compound; for viability, T/C: stronger effect = lower value
Summary of the method: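 Multi-cell-type spheroids combined patient-derived tumor cells with HUVEC endothelial cells and human mesenchymal stem cells. Paired agents were dosed in half-log steps down from about clinical Cmax, or from 10 microM where Cmax was unknown.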

[1] = second compound 0.0316 µM, first compound 0.0316 µM
[2] = second compound 0.0316 µM, first compound 0.1 µM
[3] = second compound 0.0316 µM, first compound 0.316 µM
[4] = second compound 0.0316 µM, first compound 1 µM
[5] = second compound 0.0316 µM, first compound 3.16 µM
[6] = second compound 0.0316 µM, first compound 10 µM
[7] = second compound 0.1 µM, first compound 0.0316 µM
[8] = second compound 0.1 µM, first compound 0.1 µM
[9] = second compound 0.1 µM, first compound 0.316 µM
[10] = second compound 0.1 µM, first compound 1 µM
[11] = second compound 0.1 µM, first compound 3.16 µM
[12] = second compound 0.1 µM, first compound 10 µM
[13] = second compound 0.316 µM, first compound 0.0316 µM
[14] = second compound 0.316 µM, first compound 0.1 µM
[15] = second compound 0.316 µM, first compound 0.316 µM
[16] = second compound 0.316 µM, first compound 1 µM
[17] = second compound 0.316 µM, first compound 3.16 µM
[18] = second compound 0.316 µM, first compound 10 µM
[19] = second compound 1 µM, first compound 0.0316 µM
[20] = second compound 1 µM, first compound 0.1 µM
[21] = second compound 1 µM, first compound 0.316 µM
[22] = second compound 1 µM, first compound 1 µM
[23] = second compound 1 µM, first compound 3.16 µM
[24] = second compound 1 µM, first compound 10 µM
[25] = second compound 3.16 µM, first compound 0.0316 µM
[26] = second compound 3.16 µM, first compound 0.1 µM
[27] = second compound 3.16 µM, first compound 0.316 µM
[28] = second compound 3.16 µM, first compound 1 µM
[29] = second compound 3.16 µM, first compound 3.16 µM
[30] = second compound 3.16 µM, first compound 10 µM
[31] = second compound 10 µM, first compound 0.0316 µM
[32] = second compound 10 µM, first compound 0.1 µM
[33] = second compound 10 µM, first compound 0.316 µM
[34] = second compound 10 µM, first compound 1 µM
[35] = second compound 10 µM, first compound 3.16 µM
[36] = second compound 10 µM, first compound 10 µM
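Further: spheroids exposed to the agents for seven days before readout.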

SMILES: C#Cc1c(F)ccc2cc(O)cc(-c3ncc4c(N5CC6CCC(C5)N6)nc(OCC56CCCN5CC(F)C6)nc4c3F)c12 (stereo not given) + CNC(=O)c1ccc(Nc2nc(OC3CCCC3)c3c(-c4ccc5nc(C)oc5c4)c[nH]c3n2)c(OC)c1
IC50 (second compound 0.0316 µM): < 0.0316 µM
IC50 (second compound 0.1 µM): < 0.0316 µM
IC50 (second compound 0.316 µM): < 0.0316 µM
IC50 (second compound 1 µM): < 0.0316 µM
IC50 (second compound 3.16 µM): < 0.0316 µM
IC50 (second compound 10 µM): 0.0344 µM
viability, T/C [1]: 34.1%
viability, T/C [2]: 43.8%
viability, T/C [3]: 24.7%
viability, T/C [4]: 22.7%
viability, T/C [5]: 19.7%
viability, T/C [6]: 17.7%
viability, T/C [7]: 27%
viability, T/C [8]: 26.2%
viability, T/C [9]: 22.1%
viability, T/C [10]: 29.4%
viability, T/C [11]: 26%
viability, T/C [12]: 30.8%
viability, T/C [13]: 33.1%
viability, T/C [14]: 20.1%
viability, T/C [15]: 23.5%
viability, T/C [16]: 33.7%
viability, T/C [17]: 25.6%
viability, T/C [18]: 15.5%
viability, T/C [19]: 23.1%
viability, T/C [20]: 18.2%
viability, T/C [21]: 19%
viability, T/C [22]: 38%
viability, T/C [23]: 24.4%
viability, T/C [24]: 10%
viability, T/C [25]: 24.8%
viability, T/C [26]: 20.4%
viability, T/C [27]: 23%
viability, T/C [28]: 20.9%
viability, T/C [29]: 20.8%
viability, T/C [30]: 10.5%
viability, T/C [31]: 52.5%
viability, T/C [32]: 20.1%
viability, T/C [33]: 22.6%
viability, T/C [34]: 18.4%
viability, T/C [35]: 17.7%
viability, T/C [36]: 9.34%

SMILES: C=CC(=O)N1CCN(c2nc(=O)n(-c3c(C)ccnc3C(C)C)c3nc(-c4c(O)cccc4F)c(F)cc23)C(C)C1 (stereo not given) + CNC(=O)c1ccc(Nc2nc(OC3CCCC3)c3c(-c4ccc5nc(C)oc5c4)c[nH]c3n2)c(OC)c1
IC50 (second compound 0.0316 µM): < 0.0316 µM
IC50 (second compound 0.1 µM): < 0.0316 µM
IC50 (second compound 0.316 µM): < 0.0316 µM
IC50 (second compound 1 µM): < 0.0316 µM
IC50 (second compound 3.16 µM): < 0.0316 µM
IC50 (second compound 10 µM): < 0.0316 µM
viability, T/C [1]: 35.9%
viability, T/C [2]: 44.3%
viability, T/C [3]: 34.6%
viability, T/C [4]: 24.2%
viability, T/C [5]: 25.9%
viability, T/C [6]: 15%
viability, T/C [7]: 30.9%
viability, T/C [8]: 22.7%
viability, T/C [9]: 30.4%
viability, T/C [10]: 25.1%
viability, T/C [11]: 22.2%
viability, T/C [12]: 22.9%
viability, T/C [13]: 28.8%
viability, T/C [14]: 35.2%
viability, T/C [15]: 30.8%
viability, T/C [16]: 22.8%
viability, T/C [17]: 31.2%
viability, T/C [18]: 17.4%
viability, T/C [19]: 22.3%
viability, T/C [20]: 20.8%
viability, T/C [21]: 18.2%
viability, T/C [22]: 19.8%
viability, T/C [23]: 20%
viability, T/C [24]: 12.4%
viability, T/C [25]: 22.4%
viability, T/C [26]: 25.8%
viability, T/C [27]: 15.9%
viability, T/C [28]: 22.2%
viability, T/C [29]: 23.5%
viability, T/C [30]: 10.6%
viability, T/C [31]: 27.2%
viability, T/C [32]: 23.3%
viability, T/C [33]: 22%
viability, T/C [34]: 27.3%
viability, T/C [35]: 19.1%
viability, T/C [36]: 12%

SMILES: CC(CO)NC(=O)c1cc(-c2ccc(Cl)cc2)nn(-c2cnn(C)c2)c1=O (stereo not given) + CNC(=O)c1ccc(Nc2nc(OC3CCCC3)c3c(-c4ccc5nc(C)oc5c4)c[nH]c3n2)c(OC)c1
IC50 (second compound 0.0316 µM): < 0.0316 µM
IC50 (second compound 0.1 µM): < 0.0316 µM
IC50 (second compound 0.316 µM): < 0.0316 µM
IC50 (second compound 1 µM): < 0.0316 µM
IC50 (second compound 3.16 µM): < 0.0316 µM
IC50 (second compound 10 µM): < 0.0316 µM
viability, T/C [1]: 38.7%
viability, T/C [2]: 34.8%
viability, T/C [3]: 32.9%
viability, T/C [4]: 31%
viability, T/C [5]: 28.5%
viability, T/C [6]: 23.4%
viability, T/C [7]: 24.2%
viability, T/C [8]: 23.8%
viability, T/C [9]: 27.7%
viability, T/C [10]: 21.3%
viability, T/C [11]: 39.8%
viability, T/C [12]: 21.4%
viability, T/C [13]: 27.4%
viability, T/C [14]: 29.7%
viability, T/C [15]: 24.1%
viability, T/C [16]: 24.7%
viability, T/C [17]: 16.1%
viability, T/C [18]: 19.2%
viability, T/C [19]: 14.1%
viability, T/C [20]: 36.8%
viability, T/C [21]: 16%
viability, T/C [22]: 16.2%
viability, T/C [23]: 15.8%
viability, T/C [24]: 10.7%
viability, T/C [25]: 22.3%
viability, T/C [26]: 20.2%
viability, T/C [27]: 18.7%
viability, T/C [28]: 17.9%
viability, T/C [29]: 18.6%
viability, T/C [30]: 19.4%
viability, T/C [31]: 24.3%
viability, T/C [32]: 16.7%
viability, T/C [33]: 41.6%
viability, T/C [34]: 18.7%
viability, T/C [35]: 14.1%
viability, T/C [36]: 16.8%

More lines, main results first:

IC50 (second compound 0.0316 µM): < 0.0316 µM
IC50 (second compound 0.1 µM): < 0.0316 µM
IC50 (second compound 0.316 µM): < 0.0316 µM
IC50 (second compound 1 µM): < 0.0316 µM
IC50 (second compound 3.16 µM): < 0.0316 µM
IC50 (second compound 10 µM): < 0.0316 µM
SMILES: C=C(F)C(=O)N1CCN(c2nc(OCC3CCCN3C)nc3c2CCN(c2cccc4cccc(Cl)c24)C3)CC1CC#N (stereo not given) + CNC(=O)c1ccc(Nc2nc(OC3CCCC3)c3c(-c4ccc5nc(C)oc5c4)c[nH]c3n2)c(OC)c1
viability, T/C [1]: 19.9%
viability, T/C [2]: 42.3%
viability, T/C [3]: 23.4%
viability, T/C [4]: 23.3%
viability, T/C [5]: 17.6%
viability, T/C [6]: 0.08%
viability, T/C [7]: 34.9%
viability, T/C [8]: 23%
viability, T/C [9]: 26.5%
viability, T/C [10]: 23.6%
viability, T/C [11]: 16.1%
viability, T/C [12]: 0.15%
viability, T/C [13]: 25.3%
viability, T/C [14]: 25.3%
viability, T/C [15]: 22.7%
viability, T/C [16]: 24.5%
viability, T/C [17]: 10.8%
viability, T/C [18]: 0.08%
viability, T/C [19]: 22.4%
viability, T/C [20]: 24.6%
viability, T/C [21]: 28%
viability, T/C [22]: 24.4%
viability, T/C [23]: 5.74%
viability, T/C [24]: 0.07%
viability, T/C [25]: 20.7%
viability, T/C [26]: 26.8%
viability, T/C [27]: 22.5%
viability, T/C [28]: 21%
viability, T/C [29]: 3.26%
viability, T/C [30]: 0.18%
viability, T/C [31]: 21.7%
viability, T/C [32]: 14.1%
viability, T/C [33]: 20.6%
viability, T/C [34]: 28.5%
viability, T/C [35]: 3.94%
viability, T/C [36]: 0.22%

IC50 (second compound 0.0316 µM): < 0.0316 µM
IC50 (second compound 0.1 µM): < 0.0316 µM
IC50 (second compound 0.316 µM): < 0.0316 µM
IC50 (second compound 1 µM): < 0.0316 µM
IC50 (second compound 3.16 µM): < 0.0316 µM
IC50 (second compound 10 µM): < 0.0316 µM
SMILES: COC1C=CCC(C)C(C)S(=O)(=O)NC(=O)c2ccc3c(c2)N(CC2CCC21)CC1(CCCc2cc(Cl)ccc21)CO3 (stereo not given) + CNC(=O)c1ccc(Nc2nc(OC3CCCC3)c3c(-c4ccc5nc(C)oc5c4)c[nH]c3n2)c(OC)c1
viability, T/C [1]: 31.3%
viability, T/C [2]: 51.1%
viability, T/C [3]: 31.1%
viability, T/C [4]: 47.8%
viability, T/C [5]: 45.3%
viability, T/C [6]: 4.06%
viability, T/C [7]: 27.3%
viability, T/C [8]: 26.5%
viability, T/C [9]: 18.7%
viability, T/C [10]: 16.1%
viability, T/C [11]: 7.61%
viability, T/C [12]: 4.67%
viability, T/C [13]: 21.2%
viability, T/C [14]: 31.2%
viability, T/C [15]: 22.6%
viability, T/C [16]: 12.6%
viability, T/C [17]: 6.09%
viability, T/C [18]: 4.97%
viability, T/C [19]: 19.7%
viability, T/C [20]: 23.3%
viability, T/C [21]: 19.9%
viability, T/C [22]: 17.6%
viability, T/C [23]: 6.44%
viability, T/C [24]: 16%
viability, T/C [25]: 19.7%
viability, T/C [26]: 22.5%
viability, T/C [27]: 21.7%
viability, T/C [28]: 17.4%
viability, T/C [29]: 7.34%
viability, T/C [30]: 4.74%
viability, T/C [31]: 27.4%
viability, T/C [32]: 23.8%
viability, T/C [33]: 19.8%
viability, T/C [34]: 13.2%
viability, T/C [35]: 7.33%
viability, T/C [36]: 3.62%

— PubChem BioAssay AID2060599 (Molecular Pharmacology Branch, DTP, NCI, 2025)
